Source: PubChem BioAssay AID330 (DTP/NCI, 2004)
Values joined by “and” are separate entries in the source; they are usually repeats but may differ in a detail not shown here. Equal entries are not always repeated. Inconclusive results and toxic doses are left out.

Tested on: P388 leukemia ip, CD2F1 mice, survival T/C
Assay: NCI In Vivo Anticancer Drug Screen. Data for tumor model P388 Leukemia (intraperitoneal) in CD2F1 (CDF1) mice
Details: endpoint: median survival time, higher = longer survival
Outline: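 Mice carrying the transplanted tumor received test compound or vehicle. Survival was recorded in each group, and the value is the treated-group measurement divided by that of the vehicle-treated control group.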

[1] = dose: 12.5 mg/kg/injection, schedule: Q01DX009 (ip), vehicle: Klucel (hydroxypropylcellulose) (HPC)
[2] = dose: 25.0 mg/kg/injection, schedule: Q01DX009 (ip), vehicle: Klucel (hydroxypropylcellulose) (HPC)
[3] = dose: 50.0 mg/kg/injection, schedule: Q01DX009 (ip), vehicle: Klucel (hydroxypropylcellulose) (HPC)
[4] = dose: 100.0 mg/kg/injection, schedule: Q01DX009 (ip), vehicle: Klucel (hydroxypropylcellulose) (HPC)
[5] = dose: 200.0 mg/kg/injection, schedule: Q01DX009 (ip), vehicle: Klucel (hydroxypropylcellulose) (HPC)
[6] = dose: 50.0 mg/kg/injection, schedule: Q01DX005 (ip), vehicle: saline with Tween-80
[7] = dose: 12.5 mg/kg/injection, schedule: Q01DX009 (ip), vehicle: water
[8] = dose: 25.0 mg/kg/injection, schedule: Q01DX009 (ip), vehicle: water
[9] = dose: 50.0 mg/kg/injection, schedule: Q01DX009 (ip), vehicle: water
[10] = dose: 25.0 mg/kg/injection, schedule: Q01DX009 (ip), vehicle: saline with Tween-80
[11] = dose: 50.0 mg/kg/injection, schedule: Q01DX009 (ip), vehicle: saline with Tween-80
[12] = dose: 50.0 mg/kg/injection, schedule: Q01DX009 (ip), vehicle: saline
[13] = dose: 100.0 mg/kg/injection, schedule: Q01DX009 (ip), vehicle: saline
[14] = dose: 100.0 mg/kg/injection, schedule: Q01DX005 (ip), vehicle: saline with Tween-80
[15] = dose: 200.0 mg/kg/injection, schedule: Q01DX005 (ip), vehicle: saline with Tween-80
[16] = dose: 60.0 mg/kg/injection, schedule: Q01DX005 (ip), vehicle: saline with Tween-80
[17] = dose: 120.0 mg/kg/injection, schedule: Q01DX005 (ip), vehicle: saline with Tween-80
[18] = dose: 240.0 mg/kg/injection, schedule: Q01DX005 (ip), vehicle: saline with Tween-80
[19] = dose: 50.0 mg/kg/injection, schedule: Q01DX005 (ip), vehicle: Klucel (hydroxypropylcellulose) (HPC)
[20] = dose: 100.0 mg/kg/injection, schedule: Q01DX005 (ip), vehicle: Klucel (hydroxypropylcellulose) (HPC)
[21] = dose: 200.0 mg/kg/injection, schedule: Q01DX005 (ip), vehicle: Klucel (hydroxypropylcellulose) (HPC)
[22] = dose: 60.0 mg/kg/injection, schedule: Q01DX005 (ip), vehicle: Klucel (hydroxypropylcellulose) (HPC)
[23] = dose: 120.0 mg/kg/injection, schedule: Q01DX005 (ip), vehicle: Klucel (hydroxypropylcellulose) (HPC)
[24] = dose: 240.0 mg/kg/injection, schedule: Q01DX005 (ip), vehicle: Klucel (hydroxypropylcellulose) (HPC)
[25] = dose: 30.0 mg/kg/injection, schedule: Q01DX005 (ip), vehicle: Klucel (hydroxypropylcellulose) (HPC)
[26] = dose: 100.0 mg/kg/injection, schedule: Q01DX009 (ip), vehicle: saline with Tween-80

CN(C)c1ccc(C=NCCCN2CCN(CCCN=Cc3ccc(N(C)C)cc3)CC2)cc1
T/C [1]: 93 % of control | T/C [2]: 99 % of control | T/C [3]: 104 % of control | T/C [4]: 112 % of control | T/C [5]: 105 % of control

COc1ccccc1-n1c(=O)c(N=Nc2ccccc2)c(O)n(-c2ccccc2Cl)c1=S
T/C (dose: 100.0 mg/kg/injection, schedule: Q01DX001 (ip), vehicle: Klucel (hydroxypropylcellulose) (HPC)): 97 % of control | T/C (dose: 200.0 mg/kg/injection, schedule: Q01DX001 (ip), vehicle: Klucel (hydroxypropylcellulose) (HPC)): 95 % of control | T/C (dose: 400.0 mg/kg/injection, schedule: Q01DX001 (ip), vehicle: Klucel (hydroxypropylcellulose) (HPC)): 94 % of control

S=C(NCCCN1CCN(CCCNC(=S)Nc2c3ccccc3nc3ccccc23)CC1)Nc1c2ccccc2nc2ccccc12
T/C (dose: 6.25 mg/kg/injection, schedule: Q01DX005 (ip), vehicle: saline with Tween-80): 98 % of control | T/C (dose: 12.5 mg/kg/injection, schedule: Q01DX005 (ip), vehicle: saline with Tween-80): 100 % of control and 110 % of control | T/C (dose: 25.0 mg/kg/injection, schedule: Q01DX005 (ip), vehicle: saline with Tween-80): 114 % of control and 116 % of control | T/C [6]: 119 % of control and 120 % of control

CC(=O)Oc1ccc(OC(C)=O)c2c1CC1OC1C2 (stereo not given)
T/C (dose: 3.13 mg/kg/injection, schedule: Q01DX009 (ip), vehicle: water): 100 % of control | T/C (dose: 6.25 mg/kg/injection, schedule: Q01DX009 (ip), vehicle: water): 98 % of control | T/C [7]: 100 % of control | T/C [8]: 90 % of control | T/C [9]: 100 % of control | T/C (dose: 100.0 mg/kg/injection, schedule: Q01DX009 (ip), vehicle: distilled water + Tween-80): 111 % of control | T/C (dose: 200.0 mg/kg/injection, schedule: Q01DX009 (ip), vehicle: distilled water + Tween-80): 111 % of control | T/C (dose: 400.0 mg/kg/injection, schedule: Q01DX009 (ip), vehicle: distilled water + Tween-80): 100 % of control

CCOCC(COCC)(COCC)COCC
T/C (dose: 12.5 mg/kg/injection, schedule: Q01DX009 (ip), vehicle: saline with Tween-80): 110 % of control | T/C [10]: 110 % of control | T/C [11]: 119 % of control

O=C(O)c1cccc2c1C1CCC2c2cccc(C(=O)O)c21
T/C (dose: 100.0 mg/kg/injection, schedule: Q04DX003 (ip), vehicle: Klucel (hydroxypropylcellulose) (HPC)): 108 % of control | T/C (dose: 200.0 mg/kg/injection, schedule: Q04DX003 (ip), vehicle: Klucel (hydroxypropylcellulose) (HPC)): 107 % of control | T/C (dose: 400.0 mg/kg/injection, schedule: Q04DX003 (ip), vehicle: Klucel (hydroxypropylcellulose) (HPC)): 106 % of control

CN(C)c1nc(N)nc(N)n1
T/C (dose: 6.25 mg/kg/injection, schedule: Q01DX009 (ip), vehicle: Klucel (hydroxypropylcellulose) (HPC)): 100 % of control | T/C [1]: 101 % of control and 115 % of control | T/C [2]: 99 % of control and 106 % of control | T/C [3]: 100 % of control and 107 % of control | T/C [4]: 100 % of control | T/C [5]: 105 % of control

CCCc1c2c(c(CCC)c3c1-c1cccc4cccc-3c14)-c1ccccc1C2=O
T/C (dose: 100.0 mg/kg/injection, schedule: Q04DX003 (ip), vehicle: saline with Tween-80): 105 % of control | T/C (dose: 200.0 mg/kg/injection, schedule: Q04DX003 (ip), vehicle: saline with Tween-80): 95 % of control

CSC(=S)N/N=C/c1ccc[nH]1
T/C [12]: 100 % of control | T/C [13]: 94 % of control

CC1(O)C(=O)OC(CO)C1O (stereo not given)
T/C [6]: 102 % of control | T/C [14]: 102 % of control | T/C [15]: 100 % of control

Cc1nc2ccccc2nc1C1=C(O)c2ccccc2CC1=O
T/C [16]: 95 % of control | T/C [17]: 90 % of control | T/C [18]: 93 % of control

N#CCCN(N)S(=O)(=O)c1ccccc1
T/C [19]: 99 % of control | T/C [20]: 99 % of control | T/C [21]: 98 % of control

COc1ccc(S(=O)(=O)c2cc(C)c3ccc4ccccc4c3n2)cc1
T/C [19]: 101 % of control | T/C [20]: 102 % of control | T/C [21]: 98 % of control

COC(=O)C(N)=NCC(C)NC(=O)c1ccccc1 (stereo not given)
T/C [3]: 99 % of control | T/C [4]: 101 % of control | T/C [5]: 100 % of control

CCCC(=O)NC
T/C (dose: 25.0 mg/kg/injection, schedule: Q01DX005 (ip), vehicle: saline): 102 % of control | T/C (dose: 50.0 mg/kg/injection, schedule: Q01DX005 (ip), vehicle: saline): 99 % of control | T/C (dose: 100.0 mg/kg/injection, schedule: Q01DX005 (ip), vehicle: saline): 110 % of control | T/C (dose: 200.0 mg/kg/injection, schedule: Q01DX005 (ip), vehicle: saline): 104 % of control | T/C (dose: 400.0 mg/kg/injection, schedule: Q01DX005 (ip), vehicle: saline): 99 % of control

CNC(=O)C1CCC(=O)N1Cc1c[nH]c2ccccc12 (stereo not given)
T/C [16]: 94 % of control | T/C [17]: 94 % of control | T/C [18]: 92 % of control

O=C(O)CSCC(=O)Nc1cc(C(F)(F)F)cc(C(F)(F)F)c1
T/C [22]: 95 % of control | T/C [23]: 98 % of control | T/C [24]: 113 % of control

CCOC(=O)C(=CNC1CC(OC2C[C@](O)(C(C)=O)Cc3c(O)c4c(c(O)c32)C(=O)c2c(OC)cccc2C4=O)OC(C)C1O)C(=O)OCC (stereo not given in full)
T/C (dose: 6.25 mg/kg/injection, schedule: Q04DX003 (ip), vehicle: saline with Tween-80): 95 % of control | T/C (dose: 12.5 mg/kg/injection, schedule: Q04DX003 (ip), vehicle: saline with Tween-80): 100 % of control | T/C (dose: 25.0 mg/kg/injection, schedule: Q04DX003 (ip), vehicle: saline with Tween-80): 104 % of control | T/C (dose: 50.0 mg/kg/injection, schedule: Q04DX003 (ip), vehicle: saline with Tween-80): 108 % of control

Nc1nc(N)nc(Nc2ccc(-c3cc4ccc(-c5ncc[nH]5)cc4[nH]3)cc2)n1
T/C [25]: 153 % of control | T/C [23]: 164 % of control and 171 % of control | T/C [24]: 183 % of control and 188 % of control

O=c1c2ccccc2ncn1Cc1ccco1
T/C [6]: 98 % of control | T/C [14]: 98 % of control | T/C [15]: 99 % of control

COc1ccc(C(=O)c2ncccc2C)cc1OC
T/C (dose: 50.0 mg/kg/injection, schedule: Q01DX009 (ip), vehicle: other): 95 % of control | T/C (dose: 100.0 mg/kg/injection, schedule: Q01DX009 (ip), vehicle: other): 99 % of control | T/C (dose: 200.0 mg/kg/injection, schedule: Q01DX009 (ip), vehicle: other): 95 % of control

NC(CCS(=O)(=O)NO)C(=O)O (stereo not given)
T/C [7]: 89 % of control | T/C [8]: 99 % of control | T/C [9]: 90 % of control | T/C (dose: 100.0 mg/kg/injection, schedule: Q01DX009 (ip), vehicle: water): 102 % of control | T/C (dose: 200.0 mg/kg/injection, schedule: Q01DX009 (ip), vehicle: water): 99 % of control

O=C(c1ccccc1)C(NCc1ccccc1)(Nc1ccccn1)c1ccccc1 (stereo not given)
T/C (dose: 15.0 mg/kg/injection, schedule: Q01DX005 (ip), vehicle: Klucel (hydroxypropylcellulose) (HPC)): 102 % of control | T/C [25]: 100 % of control | T/C [22]: 100 % of control and 88 % of control | T/C [24]: 89 % of control

Cc1c(C)c(C)c2c(c1C)C(=O)c1c3c(c4c(c1C2=O)CCCC4)CCCC3
T/C [10]: 108 % of control | T/C [11]: 103 % of control | T/C [26]: 99 % of control

Clc1ccc(N2CCOCC2)nn1
T/C [12]: 104 % of control | T/C [13]: 88 % of control | T/C (dose: 200.0 mg/kg/injection, schedule: Q01DX009 (ip), vehicle: saline): 100 % of control

Cc1nc2oc(=O)cc(C)c2c(=O)[nH]1
T/C [22]: 91 % of control | T/C [23]: 96 % of control

CC1(c2ccc(-c3ccccc3)cc2)NC(=O)NC1=O (stereo not given)
T/C [10]: 91 % of control | T/C [11]: 86 % of control | T/C [26]: 91 % of control
